According to US20130281445A1 (priority 2011, published 2013):

Each molecule was assayed against T1, Choline Kinase alpha enzyme (Homo sapiens, UniProt P35790) (assay: Choline Kinase Alpha Inhibition Assay (coupled NADH absorbance)). Conditions: not given.
T1 construct: hChoKα1(M1-V457) (NP_001268); GST (N); made in house; host or cells: E. coli BL21(DE3)
Assay type: biochemical
Experimental: An assay buffer solution was prepared which consisted of 100 mM Tris-HCl (pH 7.5), 100 mM KCl, and 10 mM MgCl2. An enzyme buffer containing reagents to final assay concentrations of 290 μM NADH, 2.4 mM phosphoenolpyruvate, 60 μg/mL pyruvate kinase, 20 μg/mL lactate dehydrogenase, 200 μM choline chloride substrate and 20 nM Choline Kinase alpha enzyme was prepared in assay buffer. To 32 μL of this enzyme buffer, in a 96 well plate, was added 2 μL of VRT stock solution in DMSO. The mixture was allowed to equilibrate for 10 mins at 25° C. The enzyme reaction was initiated by the addition of 32 μL stock ATP solution prepared in assay buffer to a final assay concentration of 400 μM. Initial rate data was determined from the rate of change of absorbance at 340 nm (corresponding to stoichiometric consumption of NADH) using a Molecular Devices Spectramax plate reader (Sunnyvale, Calif.) over 15 mins at 25° C. For each IC50 determination, 12 data points covering the VRT concentration range of 0-100 μM were obtained in duplicate (DMSO stocks were prepared from an initial 10 mM VRT stock with subsequent 1:2.5 serial dilutions). IC50 values were calculated from initial rate data using the Prism software package (Prism 4.0a, Graphpad Software, San Diego, Calif.).
hChoKα1(M1-V457) (NP_001268) was codon optimized for E. coli and cloned into a modified pGEX-2T vector. Recombinant GST-tagged ChoKα1 protein was produced in E. coli strain BL21(DE3). After growing cell cultures at 37° C. until the OD600=1, the cultures were induced with 1 mM IPTG for 16 h at 30° C. and the cells were harvested as a pellet (8500 rpm, 4° C., 20 min). The protein was purified using glutathione affinity purification followed by size exclusion via Superdex-200 26/60 (GE Healthcare). See Malito, Enrico et. al., “Journal of Molecular Biology”, Volume 364, Issue 2, pages 136-151 (November 2006).

T1 sequence (P35790 whole entry): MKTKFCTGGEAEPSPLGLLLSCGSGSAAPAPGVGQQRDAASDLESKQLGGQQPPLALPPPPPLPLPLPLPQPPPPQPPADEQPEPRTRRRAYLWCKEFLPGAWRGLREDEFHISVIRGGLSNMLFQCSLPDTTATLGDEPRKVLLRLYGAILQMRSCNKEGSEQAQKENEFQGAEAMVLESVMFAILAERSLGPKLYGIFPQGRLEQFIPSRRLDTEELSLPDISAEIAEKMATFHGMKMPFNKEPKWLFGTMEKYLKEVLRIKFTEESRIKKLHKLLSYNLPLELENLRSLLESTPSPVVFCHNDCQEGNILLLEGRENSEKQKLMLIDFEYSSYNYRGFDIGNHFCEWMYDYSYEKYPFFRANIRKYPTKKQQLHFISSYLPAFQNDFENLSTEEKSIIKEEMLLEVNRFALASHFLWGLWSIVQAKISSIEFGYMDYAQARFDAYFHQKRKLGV

Row | Structure (SMILES) | IC50 [nM]
1 | CN(C)c1ccc(C(=O)C2CN3CCC2CC3)cc1 (stereo not drawn) [Compound I-1, (4-dimethylaminophenyl)-quinuclidin-3-yl-methanone] | < 100
2 | O=C(c1ccc(N2CCCC2)cc1)C1CN2CCC1CC2 (stereo not drawn) [Compound I-3, (4-pyrrolidin-1-ylphenyl)-quinuclidin-3-yl-methanone] | < 100
3 | CN1CCOc2cc(C(=O)C3CN4CCC3CC4)ccc21 (stereo not drawn) [Compound I-5] | < 100
4 | O=C(c1ccc(-c2ccccc2)cc1)C1CN2CCC1CC2 (stereo not drawn) [Compound I-14, (4-phenylphenyl)-quinuclidin-3-yl-methanone] | 1000 to 50000

Same assay, conditions: 20 nM enzyme, 200 μM choline chloride, 400 μM ATP, 25° C.; read-out: IC50 values, Choline Kinase Alpha inhibition

Row | Structure (SMILES) | IC50 [nM]
5 | CCN(CC)c1ccc(C(=O)C2CN3CCC2CC3)cc1 (stereo not drawn) [Compound I-2, [4-(diethylamino)phenyl]-quinuclidin-3-yl-methanone] | 100 to 1000
6 | O=C(c1ccc(N2CCCCC2)cc1)C1CN2CCC1CC2 (stereo not drawn) [Compound I-4, [4-(1-piperidyl)phenyl]-quinuclidin-3-yl-methanone] | 100 to 1000
7 | O=C(Cc1ccccc1)C1CN2CCC1CC2 (stereo not drawn) [Compound I-6, 2-phenyl-1-(quinuclidin-3-yl)ethanone] | 1000 to 50000
8 | COc1ccc(C(=O)C2CN3CCC2CC3)cc1 (stereo not drawn) [Compound I-7, (4-methoxyphenyl)-quinuclidin-3-yl-methanone] | 1000 to 50000
9 | O=C(c1ccc2ccccc2c1)C1CN2CCC1CC2 (stereo not drawn) [Compound I-8, 2-naphthyl(quinuclidin-3-yl)methanone] | 100 to 1000
10 | O=C(c1cccc(F)c1)C1CN2CCC1CC2 (stereo not drawn) [Compound I-9, (3-fluorophenyl)-quinuclidin-3-yl-methanone] | 1000 to 50000
11 | O=C(c1ccc(F)cc1)C1CN2CCC1CC2 (stereo not drawn) [Compound I-10, (4-fluorophenyl)-quinuclidin-3-yl-methanone] | 1000 to 50000
12 | O=C(c1ccc(F)c(Cl)c1)C1CN2CCC1CC2 (stereo not drawn) [Compound I-11, (3-chloro-4-fluoro-phenyl)-quinuclidin-3-yl-methanone] | 1000 to 50000
13 | COc1cc(OC)cc(C(=O)C2CN3CCC2CC3)c1 (stereo not drawn) [Compound I-12, (3,5-dimethoxyphenyl)-quinuclidin-3-yl-methanone] | 1000 to 50000
14 | CCCc1ccc(C(=O)C2CN3CCC2CC3)cc1 (stereo not drawn) [Compound I-13, (4-propylphenyl)-quinuclidin-3-yl-methanone] | 100 to 1000
15 | O=C(c1ccc2c(c1)OCO2)C1CN2CCC1CC2 (stereo not drawn) [Compound I-15, 1,3-benzodioxol-5-yl(quinuclidin-3-yl)methanone] | 1000 to 50000
16 | CCc1ccc(C(=O)C2CN3CCC2CC3)cc1 (stereo not drawn) [Compound I-16, (4-ethylphenyl)-quinuclidin-3-yl-methanone] | 100 to 1000
17 | O=C(c1cccc2ccccc12)C1CN2CCC1CC2 (stereo not drawn) [Compound I-17, 1-naphthyl(quinuclidin-3-yl)methanone] | 1000 to 50000
18 | O=C(c1cccc(-c2ccccc2)c1)C1CN2CCC1CC2 (stereo not drawn) [Compound I-18, (3-phenylphenyl)-quinuclidin-3-yl-methanone] | 1000 to 50000
19 | O=C(c1ccc(OC(F)(F)F)cc1)C1CN2CCC1CC2 (stereo not drawn) [Compound I-19, quinuclidin-3-yl-[4-(trifluoromethoxy)phenyl]methanone] | 1000 to 50000
20 | CC(C)(C)c1ccc(C(=O)C2CN3CCC2CC3)cc1 (stereo not drawn) [Compound I-20, (4-tert-butylphenyl)-quinuclidin-3-yl-methanone] | 100 to 1000

Row | Structure (SMILES) | IC50 [nM]
21 | Cc1cccc(C(=O)C2CN3CCC2CC3)c1C (stereo not drawn) [Compound I-21, (2,3-dimethylphenyl)-quinuclidin-3-yl-methanone] | 1000 to 50000
22 | O=C(c1nc2ccccc2s1)C1CN2CCC1CC2 (stereo not drawn) [Compound I-22, benzo[d]thiazol-2-yl(quinuclidin-3-yl)methanone] | 1000 to 50000
23 | Cc1ccc(Cl)cc1C(=O)C1CN2CCC1CC2 (stereo not drawn) [Compound I-23, (5-chloro-2-methylphenyl)(quinuclidin-3-yl)methanone] | 1000 to 50000
24 | Cc1ncccc1C(=O)C1CN2CCC1CC2 (stereo not drawn) [Compound I-24, (2-methyl-3-pyridyl)-quinuclidin-3-yl-methanone] | 1000 to 50000
25 | CN(C)c1ccc(C(=O)C2CN3CCC2CC3)cc1Br (stereo not drawn) [Compound I-25, [3-bromo-4-(dimethylamino)phenyl]-quinuclidin-3-yl-methanone] | 100 to 1000
26 | CN(C)c1c(Br)cc(C(=O)C2CN3CCC2CC3)cc1Br (stereo not drawn) [Compound I-26, [3,5-dibromo-4-(dimethylamino)phenyl]-quinuclidin-3-yl-methanone] | 1000 to 50000
27 | Cc1cc(C(=O)C2CN3CCC2CC3)ccc1N(C)C (stereo not drawn) [Compound I-27, (4-(dimethylamino)-3-methylphenyl)(quinuclidin-3-yl)methanone] | 100 to 1000
28 | CN1CCN(C)c2cc(C(=O)C3CN4CCC3CC4)ccc21 (stereo not drawn) [Compound I-28, (1,4-dimethyl-2,3-dihydroquinoxalin-6-yl)-quinuclidin-3-yl-methanone] | 100 to 1000
29 | CC(O)c1ccc(C(=O)C2CN3CCC2CC3)cc1 (stereo not drawn) [Compound I-29, [4-(1-hydroxyethyl)phenyl]-quinuclidin-3-yl-methanone] | 1000 to 50000
30 | CN1CCc2cc(C(=O)C3CN4CCC3CC4)ccc21 (stereo not drawn) [Compound I-30] | 100 to 1000
31 | Cc1ccccc1C(=O)C1CN2CCC1CC2 (stereo not drawn) [Compound I-31, o-tolyl(quinuclidin-3-yl)methanone] | 1000 to 50000
32 | Cc1ccc(C(=O)C2CN3CCC2CC3)cc1 (stereo not drawn) [Compound I-32, p-tolyl(quinuclidin-3-yl)methanone] | 1000 to 50000
33 | O=C(c1cccc(Cl)c1)C1CN2CCC1CC2 (stereo not drawn) [Compound I-33, (3-chlorophenyl)-quinuclidin-3-yl-methanone] | 1000 to 50000
34 | O=C(c1ccc(Cl)cc1)C1CN2CCC1CC2 (stereo not drawn) [Compound I-34, (4-chlorophenyl)-quinuclidin-3-yl-methanone] | 1000 to 50000
35 | O=C(c1ccccc1)C1CN2CCC1CC2 (stereo not drawn) [Compound I-35, phenyl(quinuclidin-3-yl)methanone] | 1000 to 50000
36 | CC(C)c1ccc(C(=O)C2CN3CCC2CC3)cc1 (stereo not drawn) [Compound I-36] | 100 to 1000
